Measured values as given in ChEMBL document CHEMBL4261633, “Butenolides from a marine-derived fungus Aspergillus terreus with antitumor activities against pancreatic ductal adenocarcinoma cells” (Bioorg Med Chem, 2018).
The source made the active and inactive calls. The rule behind the calls is not given here.

Experiments:
PANC-1 [1] = experiment: Induction of apoptosis in human PANC1 cells assessed as necrotic cells at 25 uM after 24 hrs by FITC-Annexin V/propidium iodide staining-based flow cytometric analysis (reference value: 0.7 to 1.4%); type: functional
PANC-1 [2] = experiment: Induction of apoptosis in human PANC1 cells assessed as nuclear chromatin condensation at 25 uM after 24 hrs by Hoechst 33258 staining based fluorescence microscopic analysis; type: functional, cell-based
PANC-1 [3] = experiment: Cell cycle arrest in human PANC1 cells assessed as accumulation at S phase at 25 uM after 24 hrs by RNAase/propidium iodide staining-based flow cytometric analysis (reference value: 11.66 to 19.02%); type: functional
PANC-1 [4] = experiment: Cell cycle arrest in human PANC1 cells assessed as accumulation at G2/M phase at 10 uM after 24 hrs by RNAase/propidium iodide staining-based flow cytometric analysis (reference value: 6.83 to 11.82%); type: functional
PANC-1 [5] = experiment: Cell cycle arrest in human PANC1 cells assessed as accumulation at G1 phase at 5 uM after 24 hrs by RNAase/propidium iodide staining-based flow cytometric analysis (reference value: 67.93 to 75.87%); type: functional
PANC-1 [6] = experiment: Induction of apoptosis in human PANC1 cells assessed as nuclear fragmentation at 25 uM after 24 hrs by Hoechst 33258 staining based fluorescence microscopic analysis; type: functional, cell-based
PANC-1 [7] = experiment: Induction of apoptosis in human PANC1 cells assessed as necrotic cells at 5 uM after 24 hrs by FITC-Annexin V/propidium iodide staining-based flow cytometric analysis (reference value: 0.7 to 1.4%); type: functional
PANC-1 [8] = experiment: Induction of apoptosis in human PANC1 cells assessed as necrotic cells at 10 uM after 24 hrs by FITC-Annexin V/propidium iodide staining-based flow cytometric analysis (reference value: 0.7 to 1.4%); type: functional
PANC-1 [9] = experiment: Induction of apoptosis in human PANC1 cells assessed as nuclear shrinkage at 25 uM after 24 hrs by Hoechst 33258 staining based fluorescence microscopic analysis; type: functional, cell-based
HepG2 = experiment: Antiproliferative activity against human HepG2 cells after 24 hrs by CCK8 assay; type: functional, cell-based; conditions: HepG2, 24 h
PANC-1 [10] = experiment: Induction of apoptosis in human PANC1 cells assessed as late apoptotic cells at 25 uM after 24 hrs by FITC-Annexin V/propidium iodide staining-based flow cytometric analysis (reference value: 0.0 to 0.7%); type: functional
PANC-1 [11] = experiment: Cell cycle arrest in human PANC1 cells assessed as accumulation at S phase at 15 uM after 24 hrs by RNAase/propidium iodide staining-based flow cytometric analysis (reference value: 11.66 to 19.02%); type: functional
PANC-1 [12] = experiment: Induction of apoptosis in human PANC1 cells assessed as late apoptotic cells at 10 uM after 24 hrs by FITC-Annexin V/propidium iodide staining-based flow cytometric analysis (reference value: 0.0 to 0.7%); type: functional
PANC-1 [13] = experiment: Induction of apoptosis in human PANC1 cells assessed as viable cells at 15 uM after 24 hrs by FITC-Annexin V/propidium iodide staining-based flow cytometric analysis (reference value: 94.7 to 98.7%); type: functional; conditions: PANC-1, 24 h, read-out: Activity
PANC-1 [14] = experiment: Induction of apoptosis in human PANC1 cells assessed as necrotic cells at 15 uM after 24 hrs by FITC-Annexin V/propidium iodide staining-based flow cytometric analysis (reference value: 0.7 to 1.4%); type: functional
PANC-1 [15] = experiment: Cell cycle arrest in human PANC1 cells assessed as accumulation at G1 phase at 10 uM after 24 hrs by RNAase/propidium iodide staining-based flow cytometric analysis (reference value: 67.93 to 75.87%); type: functional
PANC-1 [16] = experiment: Cell cycle arrest in human PANC1 cells assessed as accumulation at G2/M phase at 5 uM after 24 hrs by RNAase/propidium iodide staining-based flow cytometric analysis (reference value: 6.83 to 11.82%); type: functional
PANC-1 [17] = experiment: Cell cycle arrest in human PANC1 cells assessed as accumulation at G1 phase at 25 uM after 24 hrs by RNAase/propidium iodide staining-based flow cytometric analysis (reference value: 67.93 to 75.87%); type: functional
PANC-1 [18] = experiment: Induction of apoptosis in human PANC1 cells after 24 hrs by FITC-Annexin V/propidium iodide staining-based flow cytometric analysis; type: functional, cell-based
PANC-1 [19] = experiment: Induction of apoptosis in human PANC1 cells assessed as early apoptotic cells at 25 uM after 24 hrs by FITC-Annexin V/propidium iodide staining-based flow cytometric analysis (reference value: 0.5 to 3.2%); type: functional
HCC1806 = experiment: Antiproliferative activity against human HCC1806 cells after 24 hrs by CCK8 assay; type: functional, cell-based; conditions: HCC1806, 24 h
PANC-1 [20] = experiment: Induction of apoptosis in human PANC1 cells assessed as nuclear shrinkage at 10 uM after 24 hrs by Hoechst 33258 staining based fluorescence microscopic analysis; type: functional, cell-based
PANC-1 [21] = experiment: Cell cycle arrest in human PANC1 cells assessed as accumulation at G2/M phase at 25 uM after 24 hrs by RNAase/propidium iodide staining-based flow cytometric analysis (reference value: 6.83 to 11.82%); type: functional
PANC-1 [22] = experiment: Cell cycle arrest in human PANC1 cells assessed as accumulation at S phase at 5 uM after 24 hrs by RNAase/propidium iodide staining-based flow cytometric analysis (reference value: 11.66 to 19.02%); type: functional
PANC-1 [23] = experiment: Induction of apoptosis in human PANC1 cells assessed as viable cells at 5 uM after 24 hrs by FITC-Annexin V/propidium iodide staining-based flow cytometric analysis (reference value: 94.7 to 98.7%); type: functional; conditions: PANC-1, 24 h, read-out: Activity
PANC-1 [24] = experiment: Induction of apoptosis in human PANC1 cells assessed as early apoptotic cells at 10 uM after 24 hrs by FITC-Annexin V/propidium iodide staining-based flow cytometric analysis (reference value: 0.5 to 3.2%); type: functional
PANC-1 [25] = experiment: Induction of apoptosis in human PANC1 cells assessed as viable cells at 25 uM after 24 hrs by FITC-Annexin V/propidium iodide staining-based flow cytometric analysis (reference value: 94.7 to 98.7%); type: functional; conditions: PANC-1, 24 h, read-out: Activity
PANC-1 [26] = experiment: Induction of apoptosis in human PANC1 cells assessed as nuclear fragmentation at 10 uM after 24 hrs by Hoechst 33258 staining based fluorescence microscopic analysis; type: functional, cell-based
HT-29 = experiment: Antiproliferative activity against human HT-29 cells after 24 hrs by CCK8 assay; type: functional, cell-based; conditions: HT-29, 24 h
PANC-1 [27] = experiment: Induction of apoptosis in human PANC1 cells assessed as early apoptotic cells at 5 uM after 24 hrs by FITC-Annexin V/propidium iodide staining-based flow cytometric analysis (reference value: 0.5 to 3.2%); type: functional
PANC-1 [28] = experiment: Induction of apoptosis in human PANC1 cells assessed as late apoptotic cells at 15 uM after 24 hrs by FITC-Annexin V/propidium iodide staining-based flow cytometric analysis (reference value: 0.0 to 0.7%); type: functional
PANC-1 [29] = experiment: Induction of apoptosis in human PANC1 cells assessed as viable cells at 10 uM after 24 hrs by FITC-Annexin V/propidium iodide staining-based flow cytometric analysis (reference value: 94.7 to 98.7%); type: functional; conditions: PANC-1, 24 h, read-out: Activity
PANC-1 [30] = experiment: Induction of apoptosis in human PANC1 cells assessed as nuclear chromatin condensation at 10 uM after 24 hrs by Hoechst 33258 staining based fluorescence microscopic analysis; type: functional, cell-based
PANC-1 [31] = experiment: Induction of apoptosis in human PANC1 cells assessed as late apoptotic cells at 5 uM after 24 hrs by FITC-Annexin V/propidium iodide staining-based flow cytometric analysis (reference value: 0.0 to 0.7%); type: functional
PANC-1 [32] = experiment: Cell cycle arrest in human PANC1 cells assessed as accumulation at G1 phase at 15 uM after 24 hrs by RNAase/propidium iodide staining-based flow cytometric analysis (reference value: 67.93 to 75.87%); type: functional
PANC-1 [33] = experiment: Induction of apoptosis in human PANC1 cells assessed as early apoptotic cells at 15 uM after 24 hrs by FITC-Annexin V/propidium iodide staining-based flow cytometric analysis (reference value: 0.5 to 3.2%); type: functional
PANC-1 [34] = experiment: Cell cycle arrest in human PANC1 cells assessed as accumulation at S phase at 10 uM after 24 hrs by RNAase/propidium iodide staining-based flow cytometric analysis (reference value: 11.66 to 19.02%); type: functional
PANC-1 [35] = experiment: Antiproliferative activity against human PANC1 cells after 24 hrs by CCK8 assay; type: functional, cell-based; conditions: PANC-1, 24 h
PANC-1 [36] = experiment: Cell cycle arrest in human PANC1 cells assessed as accumulation at G2/M phase at 15 uM after 24 hrs by RNAase/propidium iodide staining-based flow cytometric analysis (reference value: 6.83 to 11.82%); type: functional
BEAS-2B = experiment: Antiproliferative activity against human BEAS2B cells after 24 hrs by CCK8 assay; type: functional, cell-based

`COC(=O)[C@]1(Cc2ccc(O)c(CC=C(C)C)c2)OC(=O)C(O)=C1c1ccccc1` was tested, and the Activity (PANC-1 [1]) was 2.3%, the Activity (PANC-1 [2]) was “Active” and the Activity (PANC-1 [3]) was 42.63%. For the same compound, the Activity (PANC-1 [4]) was 8.14%, the Activity (PANC-1 [5]) was 72.84% and the Activity (PANC-1 [6]) was “Active”. The Activity (PANC-1 [7]) was 1.3%, the Activity (PANC-1 [8]) was 1.2% and the Activity (PANC-1 [9]) was “Active”. The IC50 (HepG2) was 12.9 µM, the Activity (PANC-1 [10]) was 3% and the Activity (PANC-1 [11]) was 32.92%. For the same compound, the Activity (PANC-1 [12]) was 1.4%, the viability at 15 µM (PANC-1 [13]) was 83.2% and the Activity (PANC-1 [14]) was 0.9%. The Activity (PANC-1 [15]) was 56.57%, the Activity (PANC-1 [16]) was 7.77% and the Activity (PANC-1 [17]) was 43.95%. The Activity (PANC-1 [18]) was “Dose-dependent effect”, the Activity (PANC-1 [19]) was 21.1% and the IC50 (HCC1806) was 18.7 µM. For the same compound, the Activity (PANC-1 [20]) was “Active”, the Activity (PANC-1 [21]) was 10.63% and the Activity (PANC-1 [22]) was 10.92%. It also gave a viability at 5 µM (PANC-1 [23]) of 91.1%, an Activity (PANC-1 [24]) of 13.6% and a viability at 25 µM (PANC-1 [25]) of 73.6%. For the same compound, the Activity (PANC-1 [26]) was “Active”, the IC50 (HT-29) was over 20 µM and the Activity (PANC-1 [27]) was 6.8%. The Activity (PANC-1 [28]) was 1%, the viability at 10 µM (PANC-1 [29]) was 83.9% and the Activity (PANC-1 [30]) was “Active”. For the same compound, the Activity (PANC-1 [31]) was 0.8%, the Activity (PANC-1 [32]) was 52.41% and the Activity (PANC-1 [33]) was 14.9%. For the same compound, the Activity (PANC-1 [34]) was 31.28%, the IC50 (PANC-1 [35]) was 9.4 µM and the Activity (PANC-1 [36]) was 7.7%. For the same compound, the IC50 (BEAS-2B) was over 20 µM.
